Test results taken from ChEMBL document CHEMBL5052823, “Prc1 inhibitors and methods of treatment therewith” (2020).
Active and inactive are the calls of the source. The calls are words filed in the database; no cut-off is given here.

Legend:
T-cell line = test: Induction on human TEX cells differentiation assessed as reduction in CD34 surface expression at 6 to 25 uM relative to control; type: functional, cell-based; conditions: dose 6-25 µM
Homo sapiens [1] = organism: Homo sapiens; test: Inhibition of RING1B-PCGF1 (unknown origin) activity at 0.4 to 25 uM relative to control; conditions: dose 0.4-25 µM
Homo sapiens [2] = organism: Homo sapiens; test: Inhibition of BRCA1-BARD1 (unknown origin) activity at 12.2 to 50 uM relative to control; conditions: dose 12.2-50 µM
Homo sapiens [3] = organism: Homo sapiens; test: Inhibition of TRIM37 (unknown origin) activity at 12.2 to 50 uM relative to control; conditions: dose 12.2-50 µM
Homo sapiens [4] = organism: Homo sapiens; test: Inhibition of RING1B-BMI1 (unknown origin) interaction with nucleosome at 0.8 to 12.5 uM measured by EMSA assay relative to control; conditions: dose 0.8-12.5 µM
K562 [5] = test: Inhibition of PRC1 in human K562 cells; type: cell-based
K562 [6] = test: Inhibition of RING1B-BMI1 H2Aub activity in human K562 cells at 6.2 to 25 uM relative to control; type: cell-based; conditions: dose 6.2-25 µM
T cell = test: Inhibition of RING1B-BMI1 H2Aub activity in human TEX cells at 6 to 25 uM relative to control; type: cell-based; conditions: dose 6-25 µM
M9-ENL1 [7] = test: Inhibition of colony formation in human M9-ENL1; type: functional, cell-based
M9-ENL1 [8] = test: Antitumour activity against human M9-ENL1 cells transplanted in mouse assessed as decrease in leukemia development; type: functional, cell-based
M9-ENL1 [9] = test: Antitumour activity against human M9-ENL1 cells transplanted in mouse assessed as decrease in engraftment; type: functional, cell-based

inhibition (Homo sapiens [1])	inhibition (Homo sapiens [2])	inhibition (Homo sapiens [3])	inhibition (Homo sapiens [4])	SMILES	Activity (T-cell line)	inhibition (K562 [5])	inhibition (K562 [6])	inhibition (T cell)	inhibition (M9-ENL1 [7])	Activity (M9-ENL1 [8])	Activity (M9-ENL1 [9])
				CCc1c(-c2cccc3c2ccn3CCO)[nH]c(C(=O)O)c1-c1ccc(OC)cc1Cl	inactive						
Active	inactive	inactive	Active	CC(C)c1c(-c2cccc3[nH]ccc23)[nH]c(C(=O)O)c1-c1c(Cl)ccc2[nH]ccc12	Active	Active	Active	Active	Active	Active	Active
